Where two headings read alike, the source gives them in different places.
Columns and labels:
[1] = tested on: cerebral infarction patients; experiment: Phase II single dose study: mRS on Day 90 after administration; format: in vivo, human; conditions: for Odds ratio, rate of obtaining outcome of mRS0-2: Day 90 after administration
Experimental: (§1) Randomized, double blind, placebo control, single dose, intravenous administration, parallel between groups and dose escalation regimen
(§2) Cerebral infarction patients within 12 hours from onset are used as subjects. Test subjects (90 patients: first cohort: 9, second cohort: 27, third cohort: 54) are determined in accordance with the following selection criteria and exclusion criteria.
(§3) To patients with acute cerebral infarction within 12 hours after onset, TMS-007 (SMTP-7 sodium salt preparation)) or a placebo were administered intravenously once (bolus over 1 minute+continuous injection over 30 minutes). The ratio of number of patients to which an active drug (TMS-007 sodium salt preparation) is to be administered relative to the number of patients to which a placebo is to be administered is set at 2:1 in the first and second cohorts and 1:1 in the third cohort as shown in Table 1 below.
(§4) • Safety (e.g., extracranial hemorrhage, major hemorrhage) up to Day 7 after administration • Symptomatic intracranial hemorrhage and non-symptomatic intracranial hemorrhage within 24 hours after administration • Value of mRS on Day 90 after administration • A rate of recanalization observed in an MRA image of 24 hours after administration • PK (concentration of unchanged form of TMS-007, Cmax, AUC) when TMS-007 was administered
In the FAS group, to mRS evaluation of individual dose groups (mRS 0-1 is assigned 1, mRS 2-6 is assigned 0) Day 90 after administration (Day 90), a logistic model using response, dose groups (TMS-007-combined group and placebo group), mRS on the base line, NIHSS score, age, blood pressure (systolic blood pressure) as explanatory variables was applied, odds ratio and 95% confidence interval of the TMS-007-combined group relative to the placebo group were estimated. The same estimation was carried out by using TMS-007 dose groups as the dose groups relative to the placebo group. More specifically, the odds ratios of individual TMS-007 dose groups relative to the placebo group and 95% confidence interval were estimated.

[2] = Toxicity test by two-week repeated administration to rats; conditions: both sexes, rat, in vivo, intravenous over 30 minutes once daily for two weeks, 2.4, 12 and 60 mg/kg
Experimental: (§5) Rats (12 males and 12 females) under neither anesthesia nor unrestrained condition were repeatedly and intravenously given TMS-007 (preparation of a sodium-salt thereof) at a dose of 2.4, 12 and 60 mg/kg (continuously over 30 minutes) once daily for two weeks. The day after completion of repeated administration, the rats were subjected to autopsy. As a result, NOAEL of the toxicity test of rats by repeated administration was determined to be 60 mg/kg or more.

[3] = Phase II single dose study: pharmacokinetics (plasma TMS-007 concentration); format: in vivo, human; conditions: for concentration at 31 min / concentration at 2 h: human, plasma, intravenous, patients, read-out: plasma TMS-007 concentration (mean±standard deviation); for concentration at 31 min: 31 minutes after administration; for concentration at 2 h: 2 hours after the administration
Experimental: as §3, §4
In the PK analysis set, the dose groups except the placebo group were subjected to counting/analysis. The plasma TMS-007 concentrations (original scale value, mean±standard deviation) of the TMS-007 (1, 3, 6 mg/kg) groups (hereinafter described in the same order) 31 minutes after administration of a study drug were 7.294±1.472, 29.28±8.425 and 52.19±12.76 μg/mL, respectively; the plasma TMS-007 concentrations 2 hours after the administration were 0.1379±0.09777, 0.8970±0.5752 and 3.033±2.924 μg/mL, respectively. With respect to the plasma concentration value (logarithmic conversion value) of a study drug 31 minutes after initiation of administration, difference between doses was evaluated by one-way ANOVA using a dose as a factor. As a result, p value was less than 0.0001 and difference was statistically significant
When the dose proportionality of plasma TMS-007 concentration of the investigational new drug 31 minutes after initiation of administration, was evaluated, a point estimation value (two-sided 95% confidence interval) of slope (b) of a regression equation of power model was 1.042 (0.895-1.189). From this, linearity of TMS-007 in the dose range of 1 to 6 mg/kg was confirmed (see, FIG. 11).

[4] = Plasma pharmacokinetics in monkeys (extended single-dose and repeated-dose study); format: in vivo; conditions: monkey, iv, male monkeys, 10 mg/kg-dose group, extended single-dose study and repeated-dose study (first day), average
Experimental: (§6) Cynomolgus monkey (3 males per group and 3 females per group) under neither anesthesia nor unrestrained condition were repeatedly and intravenously given TMS-007 (preparation of a sodium-salt thereof) at a dose of 3, 10 and 30 mg/kg (continuously over 30 minutes) once daily for two weeks. The day after completion of repeated administration, the monkeys were subjected to autopsy. As a result, NOAEL of the toxicity test of cynomolgus monkeys by repeated administration was determined to be 10 mg/kg or more in both male and female groups.
(§7) Cmax and AUC0-24 values when TMS-007 was administered to rats and monkeys were as follows.

healthy adult males = experiment: Phase I test for healthy persons: safety and tolerance; format: in vivo, human
Experimental: (§8) Phase I test (placebo-control randomized double-blind test) for healthy adult males was carried out. Five cohorts each was constituted of 8 persons (active drug was administered to 6 person and a placebo was administered to 2 person) were used in the test. TMS-007 (SMTP-7 sodium salt preparation) or a placebo was administered intravenously once at a dose of 0.05, 0.25, 1, 3, and 6 mg/kg (equivalent) over 31 minutes (bolus over 1 minute+continuous administration over 30 minutes). The subjects determined to be eligible by a screening test were hospitalized the day before administration. Day 3 from completion of administration, the subjects were allow to leave the hospital. Day 7 from completion of administration, post (follow-up) examination was carried out for safety, tolerance and PK in the period up to Day 7.

mice, rats and monkeys = experiment: Pharmacological tests using mice, rats and monkeys; format: in vivo; conditions: dose of 1 to 10 mg/kg
Experimental: as §7

[5] = Phase I test for healthy persons: pharmacokinetics; format: in vivo, human; conditions: for Cmax / AUC(0-t): iv; for AUC(0-t): read-out: AUC0-24 (converted)
Experimental: as §8

[6] = Plasma pharmacokinetics in rats (repeated-dose study); format: in vivo; conditions: rat, iv, male rats, 12 mg/kg-dose group, initial day of repeated-dose study, average
Experimental: as §5, §7

[7] = tested on: cerebral infarction patients; experiment: Phase II single dose study for cerebral infarction patients: safety; format: in vivo
Experimental: as §1, §2
To patients with acute cerebral infarction within 12 hours after onset, TMS-007 (SMTP-7 sodium salt preparation)) or a placebo were administered intravenously once (bolus over 1 minute+continuous injection over 30 minutes).
The frequency of occurrence of symptomatic intracranial hemorrhage with NIHSS score worsening of 4 or more points up to 24 hours after administration of TMS-007

[8] = Toxicity test by two-week repeated administration to cynomolgus monkeys; conditions: both sexes, cynomolgus monkey, in vivo, male and female, intravenous over 30 minutes once daily for two weeks, 3, 10 and 30 mg/kg
Experimental: as §6

[9] = tested on: cerebral infarction patients observed to have occlusion; experiment: Phase II single dose study: recanalization rate evaluated by MRA; format: in vivo, human; conditions: TMS-007 administration group vs placebo group
Experimental: as §3, §4
The recanalization rate was evaluated by MRA. Patients (39 cases) observed to have occlusion at the time of enrollment and observed to be “canalized” or “partially canalized” on Day 2 were evaluated as recanalization cases. The ratio of the recanalization cases was 14/[…] cases (58.3%) in the TMS-007 administration groups and 4/15 cases (26.7%) in the placebo group. […]

[10] = TMS-007 combined group to placebo group, Day 90, FAS
[11] = male, human, blood, 0.05 mg/kg single i.v. over 31 minutes
[12] = male, human, blood, 0.25 mg/kg single i.v. over 31 minutes
[13] = male, human, blood, 1 mg/kg single i.v. over 31 minutes
[14] = male, human, blood, 3 mg/kg single i.v. over 31 minutes
[15] = male, human, blood, 6 mg/kg single i.v. over 31 minutes

CC(C)=CCC/C(C)=C/CC[C@]1(C)Oc2c(c(O)cc3c2CN(CCC[C@@H](C(=O)O)N2Cc4c(cc(O)c5c4O[C@@](C)(CC/C=C(\C)CCC=C(C)C)[C@@H](O)C5)C2=O)C3=O)C[C@@H]1O [TMS-007, (S)-2,5-bis((2S,3S)-2-((E)-4,8-dimethylnona-3,7-dien-1-yl)-3,5-dihydroxy-2-methyl-7-oxo-3,4,7,9-tetrahydropyrano[2,3-e]isoindol-8(2H)-yl)pentanoic acid]
Estimated value (logistic model, dose group) for mRS 0-1 ([1]; 1 mg/kg to placebo group, Day 90, FAS): −2.425 | Odds ratio, rate of obtaining outcome of mRS0-2 ([1]; 1 mg/kg): 0.292 | Estimated value (logistic model, dose group) for mRS 0-1 ([1]; 3 mg/kg to placebo group, Day 90, FAS): −0.726 | Odds ratio, rate of obtaining outcome of mRS0-2 ([1]; 3 mg/kg): 0.585 | Estimated value (logistic model, dose group) for mRS 0-1 ([1]; 6 mg/kg to placebo group, Day 90, FAS): −1.207 | Odds ratio, rate of obtaining outcome of mRS0-2 ([1]; 6 mg/kg): 0.506 | Estimated value (logistic model, dose group) for mRS 0-1 [1, 10]: −1.206 | Odds ratio of mRS (mRS 0 and 1 assigned 1, mRS 2-6 assigned 0) [1, 10]: 0.299 | Odds ratio, rate of obtaining outcome of mRS0-2 ([1]; TMS-007 combined group): 0.500 | NOAEL at 2 weeks [2]: ≥ 60 mg/kg | concentration at 31 min ([3]; 1 mg/kg): 7290 ± 1470 ng/mL | concentration at 2 h ([3]; 1 mg/kg): 138 ± 97.8 ng/mL | concentration at 31 min ([3]; 3 mg/kg): 29300 ± 8420 ng/mL | concentration at 2 h ([3]; 3 mg/kg): 897 ± 575 ng/mL | concentration at 31 min ([3]; 6 mg/kg): 52200 ± 12800 ng/mL | concentration at 2 h ([3]; 6 mg/kg): 3030 ± 2920 ng/mL | slope (b) of regression equation of power model, dose proportionality (two-sided 95% confidence interval) ([3]; plasma concentration 31 minutes after initiation of administration, 1 to 6 mg/kg): 1.042 (0.895-1.189) | Cmax [4]: 45800 to 58600 ng/mL | AUC(0-t) ([4]; read-out: AUC0-24): 32200 to 40200 ng·h/mL | Adverse events observed (healthy adult males; single i.v. 0.05-6 mg/kg): all non-serious/mild/restorability | indication of hemorrhagic risk (healthy adult males; single i.v. dose-escalation trial): not observed | medicinal effects (mice, rats and monkeys): reduction of the area of infarction and improvement of neurological symptoms | Unchanged form of TMS-007 in urine ([5]; any one of the cohorts): not observed | time of peak blood concentration ([5]; immediately after completion of administration, all cohorts): 31 min | half-life ([5]; male, human, blood, intravenous, regardless of the dose (0.05-6 mg/kg), read-out: half-lives in blood): 10 to 15 min | Cmax [5, 11]: 346 ng/mL | AUC(0-t) [5, 11]: 252 ng·h/mL | Cmax [5, 12]: 1860 ± 150 ng/mL | AUC(0-t) [5, 12]: 1380 ng·h/mL | Cmax [5, 13]: 6700 ng/mL | AUC(0-t) [5, 13]: 5020 ng·h/mL | Cmax [5, 14]: 20300 ng/mL | AUC(0-t) [5, 14]: 16000 ng·h/mL | Cmax [5, 15]: 49900 ± 5200 ng/mL | AUC(0-t) [5, 15]: 38800 ng·h/mL | Cmax [6]: 20200 ng/mL | AUC(0-t) ([6]; read-out: AUC0-24 (converted)): 25700 ng·h/mL | occurrence of major hemorrhage ([7]; human, in vivo): not observed | symptomatic intracranial hemorrhage ([7]; human, in vivo): not observed | frequencies of adverse event, serious adverse event, side effect, serious side effect, adverse event leading to discontinuation vs placebo (Fisher's exact test) ([7]; individual TMS-007 groups and combined group, up to Day 90): not statistically significant | symptomatic intracranial hemorrhage with NIHSS score worsening of 4 or more points ([7]; up to 24 hours after administration, safety analysis set, TMS-007 groups (1, 3, 6 mg/kg)): not observed | NOAEL at 2 weeks [8]: ≥ 10 mg/kg | odds ratio of recanalization [9]: 4.23
